This passage reports MIC results from DBAASP.

Values after ≈ are worked out from the molar mass of the structure shown.

Assay in all cases: ≥ marks a high value that may be exact or a test limit, other limits are often not marked, values filed in µg/mL are converted to µM
In experiment [1] the test system is Aspergillus flavus KCTC 9471.
Experiment [2] relates to Aspergillus fumigatus KCTC 6145.
Experiment [3] deals with Bacillus subtilis.
Experiment [4] has as its system Botrytis cinerea.
For experiment [5], the system named is Candida albicans KCTC 7270.
In experiment [6] the test system is Escherichia coli O157:H7 ATCC 43895.
Experiment [7] has as its system Escherichia coli.
For experiment [8], the system named is Fusarium verticillioides.
Experiment [9] deals with Listeria monocytogenes KCTC 3710.
Experiment [10] has as its system Proteus vulgaris.
In experiment [11] the test system is Pseudomonas aeruginosa.
Experiment [12] relates to Saccharomyces cerevisiae.
Experiment [13] has as its system Salmonella typhimurium.
The subject of experiment [14] is Staphylococcus aureus.
In experiment [15] the test system is Staphylococcus epidermidis.
The subject of experiment [16] is Trichosporon beigelii.
Experiment [17] deals with Bacillus cereus.
For experiment [18], the system named is Candida albicans MTCC 227.
The subject of experiment [19] is Escherichia coli DH5alpha.
The subject of experiment [20] is Fusarium solani MTCC 10158.
The test system of experiment [21] is Salmonella enterica subsp. enterica serovar Typhi.
Experiment [22] concerns Staphylococcus aureus ATCC 43300.
Experiment [23] concerns Vibrio cholerae.
In experiment [24] the test system is Xanthomonas axonopodis ITCC BD00029.
Experiment [25] has as its system Xanthomonas oryzae ITCC BB00026.
For experiment [26], the system named is Aeromonas salmonicida RFAS1.
Experiment [27] has as its system Edwardsiella tarda FP4130.
The test system of experiment [28] is Streptococcus iniae FP5228.
In experiment [29] the test system is Vibrio alginolyticus KCCM 2928.
The test system of experiment [30] is Vibrio harveyi ATCC 14126.
Experiment [31] concerns Vibrio ordalii KCCM 41669.
The test system of experiment [32] is Edwardsiella tarda.
Experiment [33] relates to Escherichia coli JM109.
Experiment [34] concerns Vibrio campbellii KCCM 40684.
The subject of experiment [35] is Vibrio vulnificus KCTC 2982.
In experiment [36] the test system is Staphylococcus aureus 5118.
Experiment [37] has as its system Staphylococcus aureus ATCC 9144.
Experiment [38] deals with Staphylococcus aureus E4049.
Experiment [39] concerns Aspergillus niger CECT 2694.
Experiment [40] relates to Erwinia amylovora PMV 6076.
Experiment [41] concerns Fusarium oxysporum f. sp. lycopersici ATCC 201829.
Experiment [42] has as its system Penicillium expansum EPS 26.
The test system of experiment [43] is Pseudomonas syringae EPS 94.
In experiment [44] the test system is Rhizopus stolonifer CECT 2344.
The test system of experiment [45] is Xanthomonas vesicatoria 2133-2.

The MIC is the lowest concentration found to suppress growth. A lower MIC goes with inhibition by little substance. With `CC[C@H](C)[C@H](NC(=O)[C@H](CCCCN)NC(=O)[C@H](CO)NC(=O)[C@H](Cc1ccccc1)NC(=O)[C@H](CO)NC(=O)[C@H](CCCCN)NC(=O)[C@H](CCC(=O)O)NC(=O)[C@H](CC(C)C)NC(=O)[C@H](CCCN=C(N)N)NC(=O)[C@H](CCCCN)NC(=O)[C@H](Cc1ccccc1)NC(=O)[C@@H](NC(=O)[C@H](CCCCN)NC(=O)[C@H](CCCCN)NC(=O)[C@H](C)N)C(C)C)C(=O)N[C@@H](CCC(N)=O)C(=O)N[C@@H](CC(N)=O)C(=O)N[C@@H](CC(=O)O)C(=O)N[C@@H](CCCCN)C(N)=O` [AKKVFKRLEKSFSKIQNDK], the MIC was at least 50 µM in experiment [1]; at least 50 µM in [2]; 6.25 µM (≈ 14.3 µg/mL) in experiment [3]; at least 50 µM in [4]; 25 µM (≈ 57.3 µg/mL) in experiment [5]; 12.5 µM (≈ 28.7 µg/mL) in experiment [6]. For the same compound, the MIC in experiment [7] is 12.5 µM (≈ 28.7 µg/mL); in [8], at least 50 µM; in [9], 12.5 µM (≈ 28.7 µg/mL); in [10], 12.5 µM (≈ 28.7 µg/mL); in [11] it was 12.5 µM (≈ 28.7 µg/mL); in [12] it was 25 µM (≈ 57.3 µg/mL). The minimum inhibitory concentration (MIC) was 12.5 µM (≈ 28.7 µg/mL) in experiment [13], above 12.5 µM in experiment [14], 12.5 µM (≈ 28.7 µg/mL) in experiment [15] and 12.5 µM (≈ 28.7 µg/mL) in experiment [16].
In the case of `NCCCC[C@H](NC(=O)[C@H](CCCCN)NC(=O)[C@H](CS)NC(=O)[C@@H]1CSSC[C@H](N)C(=O)N[C@@H](CCCN=C(N)N)C(=O)N[C@@H](Cc2c[nH]c3ccccc23)C(=O)N[C@@H](CCCN=C(N)N)C(=O)N[C@@H](Cc2c[nH]c3ccccc23)C(=O)N[C@@H](CCCCN)C(=O)N1)C(=O)O` [CRWRWKCCKK], the MIC in [17] is 10 µM (≈ 13.9 µg/mL); in experiment [18], at least 40 µM; in [19], 20 µM (≈ 27.9 µg/mL); in experiment [20], 20 µM (≈ 27.9 µg/mL); in experiment [21], 10 µM (≈ 13.9 µg/mL); in experiment [22], 10 µM (≈ 13.9 µg/mL). For the same compound, the MIC came out at 20 µM (≈ 27.9 µg/mL) in experiment [23], 5 µM (≈ 6.97 µg/mL) in experiment [24] and 10 µM (≈ 13.9 µg/mL) in experiment [25].
On to `CC(C)C[C@H](NC(=O)[C@H](CCCN=C(N)N)NC(=O)CNC(=O)[C@H](Cc1ccccc1)NC(=O)[C@@H](N)Cc1ccccc1)C(=O)N[C@@H](CCCCN)C(=O)N[C@@H](C)C(=O)N[C@H](C(=O)N[C@@H](Cc1ccccc1)C(=O)N[C@@H](CCCN=C(N)N)C(=O)NCC(=O)N[C@@H](C)C(=O)N[C@@H](CCCN=C(N)N)C(=O)N[C@@H](CCC(N)=O)C(=O)NCC(=O)N[C@@H](Cc1c[nH]c2ccccc12)C(=O)N[C@@H](CCCCN)C(=O)N[C@@H](CCC(=O)O)C(=O)N[C@@H](Cc1cnc[nH]1)C(=O)N[C@@H](CCCN=C(N)N)C(=O)N[C@@H](Cc1ccc(O)cc1)C(=O)O)C(C)C` [FFGRLKAVFRGARQGWKEHRY], for which the MIC in experiment [26] was 7.8 µM (≈ 20.4 µg/mL); in [27], 15.6 µM (≈ 40.7 µg/mL); in [28], 7.8 µM (≈ 20.4 µg/mL); in [29] it was 0.5 µM (≈ 1.31 µg/mL); in experiment [30], 0.5 µM (≈ 1.31 µg/mL); in experiment [31] it was 15.6 µM (≈ 40.7 µg/mL).
In the case of `CC[C@H](C)[C@H](NC(=O)[C@H](CC(C)C)NC(=O)[C@H](CCCN=C(N)N)NC(=O)[C@H](Cc1cnc[nH]1)NC(=O)[C@@H](NC(=O)[C@@H](NC(=O)[C@H](CCCCN)NC(=O)CNC(=O)[C@@H](NC(=O)CNC(=O)[C@@H](NC(=O)[C@H](CC(C)C)NC(=O)CNC(=O)[C@H](CC(N)=O)NC(=O)[C@H](Cc1ccccc1)NC(=O)[C@@H](NC(=O)[C@H](Cc1cnc[nH]1)NC(=O)[C@H](Cc1cnc[nH]1)NC(=O)[C@H](Cc1ccccc1)NC(=O)[C@@H](N)Cc1ccccc1)[C@@H](C)CC)C(C)C)C(C)C)[C@@H](C)O)[C@@H](C)CC)C(=O)O` [FFHHIFNGLVGVGKTIHRLI], the MIC in experiment [32] was 11 µM (≈ 25.4 µg/mL); in experiment [33], 2.72 µM (≈ 6.28 µg/mL); in experiment [28], 1.9 µM (≈ 4.38 µg/mL); in experiment [29], 0.9 µM (≈ 2.08 µg/mL); in experiment [34], 0.9 µM (≈ 2.08 µg/mL); in [30] it was 0.9 µM (≈ 2.08 µg/mL). Moreover, the MIC in experiment [31] was at least 1000 µM; in experiment [35] it was 2.72 µM (≈ 6.28 µg/mL).
For the compound `CSCC[C@H](NC(=O)[C@@H](NC(=O)[C@H](Cc1ccccc1)NC(=O)[C@H](CC(C)C)NC(=O)[C@H](CC(C)C)NC(=O)[C@@H](NC(=O)[C@H](C)NC(=O)[C@@H](N)CC(C)C)[C@@H](C)O)[C@@H](C)O)C(=O)N[C@@H](CS)C(=O)N[C@@H](CC(C)C)C(=O)N[C@@H](CC(N)=O)C(=O)N[C@@H](Cc1ccccc1)C(=O)N[C@@H](CS)C(=O)NCC(=O)N[C@H](C(=O)N[C@@H](CC(C)C)C(=O)N[C@@H](C)C(=O)NCC(=O)N[C@@H](CC(=O)O)C(=O)N[C@@H](CC(=O)O)C(=O)O)C(C)C` [LATLLFTMCLNFCGVLAGDD], the MIC in experiment [36] was 3.78 µM (≈ 8 µg/mL); in [37], at least 125 µM; in experiment [38], 15.6 µM (≈ 33 µg/mL).
As to `CC[C@H](C)[C@H](NC(=O)[C@H](CCCCN)NC(=O)[C@H](CCCCN)NC(=O)[C@H](Cc1ccccc1)NC(=O)[C@H](CC(C)C)NC(=O)[C@H](CCCCN)NC(=O)[C@@H](N)Cc1c[nH]c2ccccc12)C(=O)N[C@@H](CC(C)C)C(=O)N[C@@H](CCCCN)C(=O)N[C@@H](Cc1ccc(O)cc1)C(=O)N[C@@H](CC(C)C)C(N)=O` [WKLFKKILKYL], the MIC in [39] was 17.3 µM (≈ 25.6 µg/mL); in experiment [40] it was 3.16 µM (≈ 4.68 µg/mL); in experiment [41], 0.849 µM (≈ 1.25 µg/mL); in experiment [42], 22.4 µM (≈ 33.1 µg/mL); in experiment [43], 3.16 µM (≈ 4.68 µg/mL); in [44], at least 35.4 µM. Moreover, in [45], the MIC was 3.16 µM (≈ 4.68 µg/mL).
